Measured values as given in patent US9839640B2, “Methods of treating eye diseases associated with inflammation and vascular proliferation” (OccuRx Pty Ltd, priority 2010, dated 2017).

Experiments:
Type in all cases: in vivo, rat
[1] = Animal characteristics (8 weeks study), STZ diabetic (mRen-2) 27 rats treated with FT011; conditions: FT011 200 mg/kg/day (100 mg/kg bid gavage), P < 0.05 versus untreated diabetes
Experimental: (§1) Ninety, six-week old female, heterozygous (mRen-2) 27 rats (St. Vincent's Hospital Animal House, Melbourne, Australia) were assigned to receive either 55 mg/kg of streptozotocin (STZ) (Sigma, St. Louis, USA) diluted in 0.1 M citrate buffer, pH 4.5 or citrate buffer alone (non-diabetic control) by tail vein injection following an overnight fast. In short term study, rats were randomly assigned to receive (n=10/group) treatment with either FT011 (100 mg/kg bid gavage) or vehicle for 8 weeks. Non-diabetic animals (n=10) served as controls. In the long term study, at 16 weeks of STZ diabetes rats were randomly assigned to either treatment (n=15/group) with, FT011 (50 mg/kg/day BID), FT011 (100 mg/kg BID) or no treatment for a further 16 weeks. Non-diabetic animals (n=15) served as controls. Each week, rats were weighed and their blood glucose levels were measured (Accu-check Advantage II Blood Glucose Monitor, Roche Diagnostics, USA) and only STZ-treated animals with blood glucose >15 mmol/L were considered diabetic. Every 4 weeks, SBP was determined in preheated conscious rats via tail-cuff plethysmography using a non-invasive blood pressure (NIBP) controller and Powerlab (AD instruments, NSW, Australia). Haemoglobin A1c (HbA1c) was measured by HPLC at the end of the study in the Department of Pathology, St Vincent's Hospital. […]

[2] = Animal characteristics (32 weeks study), STZ diabetic (mRen-2) 27 rats treated with FT011
Experimental: as §1

[3] = tested on: leukocytes in the retina; assay: Leukostasis (short term study), rhodamine-coupled Concanavalin A staining of retina
Experimental: as §1

[4] = tested on: ICAM-1 mRNA; assay: Real time PCR of retinal ICAM-1 mRNA (short term study); conditions: FIG. 3; diabetic rats treated with FT011, short term 8 week study; normalised to 18S rRNA
Experimental: as §1

[5] = tested on: acellular capillaries; assay: Trypsin digest, acellular capillaries in PAS stained retina (long term study 32 weeks); conditions: diabetic rats, 100 mg/kg/day FT011, long term study
Experimental: as §1

[6] = tested on: leukocytes in the retina; assay: Leukostasis, rhodamine-coupled Concanavalin A staining of retina (FT061 study)
Experimental: (§2) Sixty, six-week old female, heterozygous (mRen-2) 27 rats (St. Vincent's Hospital Animal House, Melbourne, Australia) were assigned to receive either 55 mg/kg of streptozotocin (STZ) (Sigma, St. Louis, USA) diluted in 0.1 M citrate buffer, pH 4.5 or citrate buffer alone (non-diabetic control) by tail vein injection following an overnight fast. Rats were randomly assigned to receive (n=15/group) treatment with either FT061 (100 mg/kg/day gavage) or vehicle for 8 weeks. Non-diabetic animals (n=15) served as controls. Each week, rats were weighed and their blood glucose levels were measured (Accu-check Advantage II Blood Glucose Monitor, Roche Diagnostics, USA) and only STZ-treated animals with blood glucose >15 mmol/L were considered diabetic. Every 4 weeks, SBP was determined in preheated conscious rats via tail-cuff plethysmography using a non-invasive blood pressure (NIBP) controller and Powerlab (AD instruments, NSW, Australia). Diabetic rats received a daily injection of insulin (2-4 units intraperitoneally; Humulin NPH, Eli Lilly and Co., Indianapolis, Ind.) to reduce mortality and to promote weight gain.
At the end of the study, rats were anaesthetized with Lethobarb (60 mg/kg) and the chest cavity was opened. […] The total number of leukocytes was counted per retina. […]

[7] = tested on: ICAM-1 mRNA; assay: Real time PCR of retinal ICAM-1 mRNA (FT061 study); conditions: FIG. 8; diabetic rats, FT061 100 mg/kg/day 8 weeks, compared to controls and untreated diabetes
Experimental: as §2, with “Diabetic rats received a daily injection of insulin (2-4 units intraperitoneally; Humulin NPH, Eli Lilly and Co., Indianapolis, Ind.) to reduce mortality and to promote weight gain.” left out
(§3) At the end of the study, rats were anaesthetized with lethobarb (60 mg/kg), eyes were enucleated and retinae dissected and placed in RNAlater (#R0901, Sigma-Aldrich). […] RNA concentration was determined on a Nanodrop 3.1.2, after which 1 μg of RNA was DNase treated (DNA-free kit, Ambion) and reverse transcribed (First Strand cDNA Synthesis Kit for RT-PCR, Roche). […]

[8] = tested on: VEGF mRNA; assay: Real time PCR of retinal VEGF mRNA (FT061 study); conditions: FIG. 9; diabetic rats, FT061 100 mg/kg/day 8 weeks, compared to controls and untreated diabetes
Experimental: as §2, with “Diabetic rats received a daily injection of insulin (2-4 units intraperitoneally; Humulin NPH, Eli Lilly and Co., Indianapolis, Ind.) to reduce mortality and to promote weight gain.” left out
as §3

Row | Compound | HbA1C [1] [%] | HbA1C ([2]; FT011 100 mk/kg/day, P < 0.05 versus control) [%] | HbA1C ([2]; FT011 200 mk/kg/day, P < 0.05 versus untreated diabetes) [%] | total number of leukocytes in the retina ([3]; FIG. 1, diabetic rats, FT011 100 mg/kg bid gavage 8 weeks, compared to untreated diabetic rats) | leukostasis (representative micrographs) ([3]; FIG. 2, diabetic rats treated with FT011, short term study) | retinal ICAM-1 mRNA levels [4] | number of acellular capillaries per field ([5]; FIG. 4, compared to untreated diabetic rats) | acellular capillaries (pericyte ghost), representative micrographs ([5]; FIG. 5) | total number of leukocytes in the retina ([6]; FIG. 6, diabetic rats, FT061 100 mg/kg/day gavage 8 weeks, compared to untreated diabetic rats) | leukostasis (representative photomicrographs) ([6]; FIG. 7, diabetic rats treated with FT061) | retinal ICAM-1 mRNA levels [7] | retinal VEGF mRNA levels [8]
1 | C#CCOc1ccc(/C=C/C(=O)Nc2ccccc2C(=O)O)cc1OC [FT011] | 8.9 ± 0.50 | 7.65 ± 0.25 | 6.58 ± 0.37 | significantly less | significantly reduced leukostasis | reduction in ICAM-1 mRNA levels | less acellular capillaries | pericyte ghosts were not apparent | – | – | – | –
2 | O=C(/C=C/c1ccc(OC(F)F)c(OC(F)F)c1)Nc1ccccc1C(=O)O [FT061] | – | – | – | – | – | – | – | – | significantly less | significantly reduced leukostasis | reduction in ICAM-1 mRNA levels | reduction in VEGF mRNA levels
